The values below are quoted from earlier work in patent publication US6174886A, “Antipsychotic use of triazolo-pyridazine derivatives” (Merck Sharp & Dohme Ltd., priority 1997, dated 2001).

The series relates to schizophrenic patients with an acute psychotic episode.

For `CC(C)(C)OC(=O)c1ncn2c1[C@@H]1CCCN1C(=O)c1c(Br)cccc1-2` [bretazenil], the antipsychotic efficacy entry is “moderate antipsychotic efficacy” and the “most frequent adverse reaction reported in the study” value is recorded as “sedation”.
